Data on one compound can be found in US7410982B2, “Propanamine derivatives as serotonin and norepinephrine reuptake inhibitors” (Eli Lilly and Company, priority 2002, dated 2008).

`CNCC[C@@H](Oc1cncc2sccc12)c1ccccc1.Cl` came in with a melting point of 68.1 °C.

The melting point is the temperature of the solid-liquid transition.
